Laboratory results published in patent publication US20080009418A1, “Selective Inhibitors” (Alchemia LTD., priority 2004, published 2008).

Tests used:
Human δ-opioid (DOP) = biological target: T1, Human δ-opioid (DOP) (Homo sapiens, UniProt P41143); test: Radioligand binding, human δ-opioid (DOP) membranes, FlashPlate, [3H]-Bremazocine; conditions: compound at 10 μM; [3H]-Bremazocine
T1 construct: purchased Perkin Elmer Biosignal
Method in brief: (§1)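 Cloned human receptor membranes were coated onto FlashPlate wells and incubated with radioligand and compound (added from a 0.5 mM DMSO daughter plate) for 1 hour at room temperature in the dark. Scintillation counting gave percent inhibition, with DMSO defining total and reference ligand defining non-specific binding.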

Human κ-Opioid (KOP) = biological target: T2, Human κ-Opioid (KOP) (Homo sapiens, UniProt P41145); test: Radioligand binding, human κ-opioid (KOP) membranes, filtration, [3H]-Diprenorphine; conditions: compound at 10 μM; [3H]-Diprenorphine
T2 construct: purchased Perkin Elmer Biosignal
Method in brief: (§2)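 Membranes from cloned human receptors were incubated with compound and radioligand for 1 hour at room temperature. Bound ligand was collected on 0.3% PEI-soaked filters, washed with cold 50 mM Tris-HCl pH 7.4, and counted by scintillation. Percent inhibition was computed against DMSO totals and reference-ligand nonspecific wells.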

Human Melanocortin (MC3) = biological target: T3, Human Melanocortin (MC3) (Homo sapiens, UniProt P41968); test: Radioligand binding, human melanocortin MC3 membranes, FlashPlate, [125I]-NDP-αMSH; conditions: compound at 10 μM; [125I]-NDP-αMSH
T3 construct: purchased Perkin Elmer Biosignal
Method in brief: as §1

Human Melanocortin (MC4) = biological target: T4, Human Melanocortin (MC4) (Homo sapiens, UniProt P32245); test: Radioligand binding, human melanocortin MC4 membranes, FlashPlate, [125I]-NDP-αMSH; conditions: compound at 10 μM; [125I]-NDP-αMSH
T4 construct: purchased Perkin Elmer Biosignal
Method in brief: as §1

Human melanocortin (MC5) = biological target: T5, Human melanocortin (MC5) (Homo sapiens, UniProt P33032); test: Radioligand binding, human melanocortin MC5 membranes, FlashPlate, [125I]-NDP-αMSH; conditions: compound at 10 μM; [125I]-NDP-αMSH
T5 construct: purchased Perkin Elmer Biosignal
Method in brief: as §1

[1] = biological target: T6, Human melanin-concentrating hormone (MCH1) (Homo sapiens, UniProt Q99705); test: Radioligand binding, human melanin-concentrating hormone MCH1 membranes, FlashPlate, [125I]-S36057; conditions: compound at 10 μM; [125I]-S36057
T6 construct: purchased Perkin Elmer Biosignal
Method in brief: as §1

Human μ-opioid (MOP) = biological target: T7, Human μ-opioid (MOP) (Homo sapiens, UniProt P35372); test: Radioligand binding, human μ-opioid (MOP) membranes, FlashPlate, [3H]-Naloxone; conditions: compound at 10 μM; [3H]-Naloxone
T7 construct: purchased Perkin Elmer Biosignal
Method in brief: as §1

Human neurokinin (NK1) = biological target: T8, Human neurokinin (NK1) (Homo sapiens, UniProt P25103); test: Radioligand binding, human neurokinin NK1 membranes, filtration, [125I]-Substance P; conditions: compound at 10 μM; [125I]-Substance P
T8 construct: purchased Perkin Elmer Biosignal
Method in brief: as §2

[2] = biological target: T9, Human neuropeptide Y (NPY-Y1) (Homo sapiens, UniProt P25929); test: Radioligand binding, human neuropeptide Y NPY-Y1 membranes, FlashPlate, [125I]-PYY; conditions: compound at 10 μM; [125I]-PYY
T9 construct: purchased Perkin Elmer Biosignal
T9 sequence (P25929 1-384): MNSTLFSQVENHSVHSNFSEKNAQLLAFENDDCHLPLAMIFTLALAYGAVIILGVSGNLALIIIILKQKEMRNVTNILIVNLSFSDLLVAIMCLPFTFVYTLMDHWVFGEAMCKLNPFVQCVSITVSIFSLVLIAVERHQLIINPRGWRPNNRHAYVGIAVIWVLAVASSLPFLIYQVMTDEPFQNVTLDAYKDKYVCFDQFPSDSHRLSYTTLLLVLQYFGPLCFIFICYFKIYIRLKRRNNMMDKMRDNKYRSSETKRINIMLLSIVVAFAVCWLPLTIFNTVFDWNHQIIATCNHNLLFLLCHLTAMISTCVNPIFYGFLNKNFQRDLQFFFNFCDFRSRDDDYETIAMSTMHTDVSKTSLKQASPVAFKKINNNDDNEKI
Method in brief: as §1

Human opioid (ORL1) = biological target: T10, Human opioid (ORL1) (Homo sapiens, UniProt P41146); test: Radioligand binding, human opioid ORL1 membranes, FlashPlate, [125I]-Nociceptin; conditions: compound at 10 μM; [125I]-Nociceptin
T10 construct: purchased Perkin Elmer Biosignal
Method in brief: as §1

Mouse urotensin (mUR2) = biological target: T11, Mouse urotensin (mUR2) (Mus musculus, UniProt Q8VIH9); test: Radioligand binding, mouse urotensin mUR2 membranes, FlashPlate, [125I]-Urotensin II; conditions: compound at 10 μM; [125I]-Urotensin II
T11 construct: purchased Perkin Elmer Biosignal
T11 sequence (Q8VIH9 1-385): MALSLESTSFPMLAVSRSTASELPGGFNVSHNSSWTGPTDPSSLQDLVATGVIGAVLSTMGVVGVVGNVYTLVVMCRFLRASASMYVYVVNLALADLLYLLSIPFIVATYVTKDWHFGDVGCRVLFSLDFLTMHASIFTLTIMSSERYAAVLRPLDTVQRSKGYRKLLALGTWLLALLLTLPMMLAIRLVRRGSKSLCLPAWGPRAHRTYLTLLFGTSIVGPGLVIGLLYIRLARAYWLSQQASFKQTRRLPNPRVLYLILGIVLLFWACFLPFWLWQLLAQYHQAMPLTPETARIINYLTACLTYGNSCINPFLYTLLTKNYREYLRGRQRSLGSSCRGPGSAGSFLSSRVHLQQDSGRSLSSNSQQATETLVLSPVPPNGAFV
Method in brief: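 Cloned mouse urotensin (mUR2) receptor membranes from Perkin Elmer Biosignal were immobilized in FlashPlate microplates using a proprietary coating. Each well got 19.5 μl buffer, then 0.5 μl of DMSO, reference ligand, or compound. Adding 5 μl of [125I]-Urotensin II, diluted to 5× final concentration in binding buffer, started binding. Plates were sealed with TopSeal-A and incubated 1 hour at room temperature in the dark. Wells were counted for 30 seconds each on a TopCount after a 60-second delay, and percentage inhibition was calculated.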

T4 sequence (P32245 whole entry): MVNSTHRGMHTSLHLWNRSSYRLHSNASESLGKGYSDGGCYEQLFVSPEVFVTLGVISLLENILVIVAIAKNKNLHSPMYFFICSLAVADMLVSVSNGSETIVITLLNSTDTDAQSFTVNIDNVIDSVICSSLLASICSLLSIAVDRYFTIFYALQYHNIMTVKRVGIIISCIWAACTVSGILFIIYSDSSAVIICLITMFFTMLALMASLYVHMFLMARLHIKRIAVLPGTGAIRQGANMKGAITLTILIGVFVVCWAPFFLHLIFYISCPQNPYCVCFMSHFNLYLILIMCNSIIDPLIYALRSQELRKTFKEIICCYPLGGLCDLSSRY
T6 sequence (Q99705 whole entry): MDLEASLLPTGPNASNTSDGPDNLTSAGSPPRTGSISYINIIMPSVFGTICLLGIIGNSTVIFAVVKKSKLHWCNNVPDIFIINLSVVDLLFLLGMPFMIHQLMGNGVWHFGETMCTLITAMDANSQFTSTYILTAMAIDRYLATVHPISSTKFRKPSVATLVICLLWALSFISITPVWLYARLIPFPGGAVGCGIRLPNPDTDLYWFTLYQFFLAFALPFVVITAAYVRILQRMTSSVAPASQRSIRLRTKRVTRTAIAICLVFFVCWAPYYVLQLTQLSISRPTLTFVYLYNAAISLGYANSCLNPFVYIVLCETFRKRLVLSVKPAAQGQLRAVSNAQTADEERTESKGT
T2 sequence (P41145 whole entry): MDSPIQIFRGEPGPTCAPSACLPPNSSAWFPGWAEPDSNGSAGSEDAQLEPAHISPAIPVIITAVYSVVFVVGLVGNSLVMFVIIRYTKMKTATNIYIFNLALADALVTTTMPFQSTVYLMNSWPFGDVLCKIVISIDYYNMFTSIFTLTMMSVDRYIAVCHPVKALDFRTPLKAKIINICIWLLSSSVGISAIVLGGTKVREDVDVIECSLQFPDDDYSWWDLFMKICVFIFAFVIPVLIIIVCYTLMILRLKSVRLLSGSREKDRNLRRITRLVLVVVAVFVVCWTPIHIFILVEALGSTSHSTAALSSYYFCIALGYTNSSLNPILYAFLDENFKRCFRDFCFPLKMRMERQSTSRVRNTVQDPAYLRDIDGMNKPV
T10 sequence (P41146 whole entry): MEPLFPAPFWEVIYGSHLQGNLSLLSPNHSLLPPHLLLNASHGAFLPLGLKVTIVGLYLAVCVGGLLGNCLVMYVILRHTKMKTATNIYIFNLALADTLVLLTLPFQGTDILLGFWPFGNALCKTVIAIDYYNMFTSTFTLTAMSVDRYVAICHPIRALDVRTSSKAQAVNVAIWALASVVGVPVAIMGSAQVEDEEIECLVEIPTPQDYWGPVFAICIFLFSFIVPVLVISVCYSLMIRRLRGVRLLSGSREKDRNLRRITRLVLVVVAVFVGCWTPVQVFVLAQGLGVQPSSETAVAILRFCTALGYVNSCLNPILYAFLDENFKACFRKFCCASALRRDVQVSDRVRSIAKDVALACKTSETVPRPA
T7 sequence (P35372 whole entry): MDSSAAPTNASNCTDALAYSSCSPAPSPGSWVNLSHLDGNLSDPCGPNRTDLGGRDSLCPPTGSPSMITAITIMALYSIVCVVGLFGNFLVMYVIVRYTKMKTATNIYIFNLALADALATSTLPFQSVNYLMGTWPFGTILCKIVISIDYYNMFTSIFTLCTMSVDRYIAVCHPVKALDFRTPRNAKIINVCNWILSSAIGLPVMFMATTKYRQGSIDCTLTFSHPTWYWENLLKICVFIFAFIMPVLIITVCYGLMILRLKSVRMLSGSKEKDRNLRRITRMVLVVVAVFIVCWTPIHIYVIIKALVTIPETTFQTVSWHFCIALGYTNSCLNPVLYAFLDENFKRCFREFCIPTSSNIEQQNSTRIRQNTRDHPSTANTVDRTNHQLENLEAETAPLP
T1 sequence (P41143 whole entry): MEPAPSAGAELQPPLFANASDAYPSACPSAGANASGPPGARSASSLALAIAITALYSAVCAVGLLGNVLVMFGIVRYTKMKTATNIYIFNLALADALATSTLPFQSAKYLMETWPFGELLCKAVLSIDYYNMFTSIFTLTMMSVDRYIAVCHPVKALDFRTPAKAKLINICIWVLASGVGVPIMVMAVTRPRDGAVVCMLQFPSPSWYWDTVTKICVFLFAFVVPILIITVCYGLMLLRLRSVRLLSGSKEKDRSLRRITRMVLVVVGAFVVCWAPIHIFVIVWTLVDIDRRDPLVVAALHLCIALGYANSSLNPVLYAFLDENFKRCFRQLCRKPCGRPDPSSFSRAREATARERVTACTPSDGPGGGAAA
T8 sequence (P25103 whole entry): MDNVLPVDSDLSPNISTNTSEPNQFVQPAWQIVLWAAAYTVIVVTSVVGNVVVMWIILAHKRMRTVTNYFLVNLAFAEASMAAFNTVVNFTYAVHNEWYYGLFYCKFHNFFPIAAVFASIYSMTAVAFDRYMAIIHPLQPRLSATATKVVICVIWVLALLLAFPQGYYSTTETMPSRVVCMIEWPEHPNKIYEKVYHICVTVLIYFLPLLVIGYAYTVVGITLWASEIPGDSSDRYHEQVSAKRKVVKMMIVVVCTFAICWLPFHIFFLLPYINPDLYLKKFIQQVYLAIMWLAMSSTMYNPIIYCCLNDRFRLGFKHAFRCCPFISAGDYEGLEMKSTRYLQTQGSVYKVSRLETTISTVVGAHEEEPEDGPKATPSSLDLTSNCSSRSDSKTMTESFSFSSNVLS
T3 sequence (P41968 whole entry): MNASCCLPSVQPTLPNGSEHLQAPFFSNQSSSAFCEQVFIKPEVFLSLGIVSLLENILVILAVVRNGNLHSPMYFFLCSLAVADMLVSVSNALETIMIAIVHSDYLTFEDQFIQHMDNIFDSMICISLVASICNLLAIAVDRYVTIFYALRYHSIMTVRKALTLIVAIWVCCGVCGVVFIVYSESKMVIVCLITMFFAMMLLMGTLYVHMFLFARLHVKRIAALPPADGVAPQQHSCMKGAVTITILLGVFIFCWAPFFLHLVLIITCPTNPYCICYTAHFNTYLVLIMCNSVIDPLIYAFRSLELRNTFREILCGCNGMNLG
T5 sequence (P33032 whole entry): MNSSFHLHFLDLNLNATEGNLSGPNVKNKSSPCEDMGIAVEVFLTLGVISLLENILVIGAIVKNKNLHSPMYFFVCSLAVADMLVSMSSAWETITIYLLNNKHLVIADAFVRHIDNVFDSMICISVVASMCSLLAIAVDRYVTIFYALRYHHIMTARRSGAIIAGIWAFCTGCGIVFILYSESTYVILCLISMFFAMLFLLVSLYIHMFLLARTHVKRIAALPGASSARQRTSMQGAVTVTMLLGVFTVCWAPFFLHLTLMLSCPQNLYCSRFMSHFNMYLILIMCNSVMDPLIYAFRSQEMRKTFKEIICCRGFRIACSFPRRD

Structure (SMILES)	A1 radioligand binding, percentage inhibition (Human δ-opioid (DOP))	A2 radioligand binding, percentage inhibition (Human κ-Opioid (KOP))	A3 radioligand binding, percentage inhibition (Human Melanocortin (MC3))	A4 radioligand binding, percentage inhibition (Human Melanocortin (MC4))	A5 radioligand binding, percentage inhibition (Human melanocortin (MC5))	A6 radioligand binding, percentage inhibition [1]	A7 radioligand binding, percentage inhibition (Human μ-opioid (MOP))	A8 radioligand binding, percentage inhibition (Human neurokinin (NK1))	A9 radioligand binding, percentage inhibition [2]	A10 radioligand binding, percentage inhibition (Human opioid (ORL1))	A11 radioligand binding, percentage inhibition (Mouse urotensin (mUR2))
CO[C@H]1[C@H](O)[C@@H](COCc2ccc(-c3ccccc3)cc2)OC(OCc2cccc(O)c2)[C@@H]1NC(=O)CNC(=N)N (stereo partly shown) [compound 162]	− (“−” indicates less than 50% inhibition at 10 μM)	− (“−” indicates less than 50% inhibition at 10 μM)	− (“−” indicates less than 50% inhibition at 10 μM)	− (“−” indicates less than 50% inhibition at 10 μM)	− (“−” indicates less than 50% inhibition at 10 μM)	− (“−” indicates less than 50% inhibition at 10 μM)	− (“−” indicates less than 50% inhibition at 10 μM)	+ (“+” indicates greater than 50% inhibition at 10 μM)	− (“−” indicates less than 50% inhibition at 10 μM)	− (“−” indicates less than 50% inhibition at 10 μM)	− (“−” indicates less than 50% inhibition at 10 μM)
CO[C@H]1[C@H](O)[C@@H](COCc2ccc(-c3ccccc3)cc2)OC(OCc2cccc(O)c2)[C@@H]1NC(=O)CCNC(=N)N (stereo partly shown) [compound 163]	− (“−” indicates less than 50% inhibition at 10 μM)	− (“−” indicates less than 50% inhibition at 10 μM)	+ (“+” indicates greater than 50% inhibition at 10 μM)	+ (“+” indicates greater than 50% inhibition at 10 μM)	+ (“+” indicates greater than 50% inhibition at 10 μM)	− (“−” indicates less than 50% inhibition at 10 μM)	− (“−” indicates less than 50% inhibition at 10 μM)	+ (“+” indicates greater than 50% inhibition at 10 μM)	− (“−” indicates less than 50% inhibition at 10 μM)	− (“−” indicates less than 50% inhibition at 10 μM)	− (“−” indicates less than 50% inhibition at 10 μM)
CO[C@H]1[C@H](O)[C@@H](COCc2ccc(-c3ccccc3)cc2)OC(OCc2cccc(O)c2)[C@@H]1NC(=O)CCCN (stereo partly shown) [compound 164]	− (“−” indicates less than 50% inhibition at 10 μM)	− (“−” indicates less than 50% inhibition at 10 μM)	− (“−” indicates less than 50% inhibition at 10 μM)	+ (“+” indicates greater than 50% inhibition at 10 μM)	− (“−” indicates less than 50% inhibition at 10 μM)	− (“−” indicates less than 50% inhibition at 10 μM)	− (“−” indicates less than 50% inhibition at 10 μM)	+ (“+” indicates greater than 50% inhibition at 10 μM)	− (“−” indicates less than 50% inhibition at 10 μM)	− (“−” indicates less than 50% inhibition at 10 μM)	− (“−” indicates less than 50% inhibition at 10 μM)
CO[C@H]1[C@H](O)[C@@H](COCc2ccc3ccccc3c2)OC(OCc2cccc(O)c2)[C@@H]1NC(=O)CNC(=N)N (stereo partly shown) [compound 165]	− (“−” indicates less than 50% inhibition at 10 μM)	− (“−” indicates less than 50% inhibition at 10 μM)	− (“−” indicates less than 50% inhibition at 10 μM)	− (“−” indicates less than 50% inhibition at 10 μM)	− (“−” indicates less than 50% inhibition at 10 μM)	− (“−” indicates less than 50% inhibition at 10 μM)	− (“−” indicates less than 50% inhibition at 10 μM)	+ (“+” indicates greater than 50% inhibition at 10 μM)	− (“−” indicates less than 50% inhibition at 10 μM)	− (“−” indicates less than 50% inhibition at 10 μM)	− (“−” indicates less than 50% inhibition at 10 μM)
CO[C@H]1[C@H](O)[C@@H](COCc2ccc3ccccc3c2)OC(OCc2cccc(O)c2)[C@@H]1NC(=O)CCNC(=N)N (stereo partly shown) [compound 166]	− (“−” indicates less than 50% inhibition at 10 μM)	− (“−” indicates less than 50% inhibition at 10 μM)	− (“−” indicates less than 50% inhibition at 10 μM)	+ (“+” indicates greater than 50% inhibition at 10 μM)	+ (“+” indicates greater than 50% inhibition at 10 μM)	− (“−” indicates less than 50% inhibition at 10 μM)	− (“−” indicates less than 50% inhibition at 10 μM)	+ (“+” indicates greater than 50% inhibition at 10 μM)	− (“−” indicates less than 50% inhibition at 10 μM)	− (“−” indicates less than 50% inhibition at 10 μM)	− (“−” indicates less than 50% inhibition at 10 μM)
